Tests used:
[1] = system: Chinese sprangletop; assay: Test Example 3: herbicidal effect by foliage application, Wagner pot (Table 18, symbol D); format: in vivo, chinese sprangletop (Leptochloa chinensis); conditions: for Herbicidal effect on D (Chinese sprangletop), foliage application: amount of applied herbicide 320 g/ha
In short: (§1)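 Plants were sown in alluvial soil held under 0.1–0.5 cm standing water and grown 14 days in a greenhouse at 25–30 °C. An emulsifiable formulation, water-diluted to the set dose, was then sprayed onto the foliage, and effects were scored three weeks later using previously defined criteria.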

[2] = system: wild oat; assay: Test Example 5: herbicidal effect by foliage application, plastic box (Table 20, symbol I); format: in vivo, wild oat (Avena fatua); conditions: foliage application
In short: (§2)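 Foliar spray test: emulsion formulation diluted in water to a set application rate, sprayed onto 14-day-old plants raised in diluvial soil at 25° C to 30° C under glass. Both herbicidal effect and crop effect rated visually three weeks later.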

[3] = system: green foxtail; assay: Test Example 5: herbicidal effect by foliage application, plastic box (Table 20, symbol G); format: in vivo, green foxtail (Setaria viridis); conditions: foliage application
In short: as §2

[4] = system: windgrass; assay: Test Example 5: herbicidal effect by foliage application, plastic box (Table 20, symbol L); format: in vivo, windgrass (Apera spica-venti); conditions: foliage application
In short: as §2

[5] = system: Japanese bulrush; assay: Test Example 1: herbicidal activity, application before weed generation under submerged conditions (Table 16, symbol B); format: in vivo, Japanese bulrush (Schoenoplectus juncoides)
In short: (§3)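 Submerged Wagner pots (alluvial soil, 4 cm water) sown with weed seeds and planted with 2.5-leaf rice seedlings; emulsifiable concentrate diluted in water applied to water surface on sowing day. Held in greenhouse at 25-30 °C; injury scored 0-5 by herbicidal rate after three weeks.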

[6] = system: redroot pigweed; assay: Test Example 4: herbicidal effect by soil treatment (Table 19, symbol N); format: in vivo, redroot pigweed (Amaranthus retroflexus)
In short: (§4)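 Herbicidal effect was rated 3 weeks after treatment, using the scoring criteria of an earlier test. The compound, formulated as an emulsion and diluted in water to a set herbicide amount, had been sprayed uniformly on soil over freshly sown seeds. Growth took place in a greenhouse at 25° C. to 30° C.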

[7] = system: southern crabgrass; assay: Test Example 4: herbicidal effect by soil treatment (Table 19, symbol F); format: in vivo, southern crabgrass (Digitaria ciliaris)
In short: as §4

[8] = system: barnyard grass; assay: Test Example 4: herbicidal effect by soil treatment (Table 19, symbol H); format: in vivo, barnyard grass (Echinochloa crus-galli)
In short: as §4

[9] = system: windgrass; assay: Test Example 4: herbicidal effect by soil treatment (Table 19, symbol L); format: in vivo, windgrass (Apera spica-venti); conditions: amount of applied herbicide 320 g/ha
In short: as §4

[10] = system: persian speedwell; assay: Test Example 5: herbicidal effect by foliage application, plastic box (Table 20, symbol R); format: in vivo, Persian speedwell (Veronica persica); conditions: foliage application
In short: as §2

[11] = system: barnyard grass; assay: Test Example 3: herbicidal effect by foliage application, Wagner pot (Table 18, symbol H); format: in vivo, barnyard grass (Echinochloa crus-galli); conditions: for Herbicidal effect on H (barnyard grass), foliage application: amount of applied herbicide 320 g/ha
In short: as §1

[12] = system: velvetleaf; assay: Test Example 4: herbicidal effect by soil treatment (Table 19, symbol M); format: in vivo, velvetleaf (Abutilon theophrasti)
In short: as §4

[13] = system: oval-leafed pondweed; assay: Test Example 1: herbicidal activity, application before weed generation under submerged conditions (Table 16, symbol C); format: in vivo, oval-leafed pondweed (Monochoria vaginalis)
In short: as §3

[14] = system: lambsquarters; assay: Test Example 5: herbicidal effect by foliage application, plastic box (Table 20, symbol O); format: in vivo, lambsquarters (Chenopodium album); conditions: foliage application
In short: as §2

[15] = system: rice flat sedge; assay: Test Example 3: herbicidal effect by foliage application, Wagner pot (Table 18, symbol E); format: in vivo, rice flat sedge (Cyperus iria); conditions: for Herbicidal effect on E (rice flat sedge), foliage application: amount of applied herbicide 320 g/ha
In short: as §1

[16] = system: barnyard grass; assay: Test Example 5: herbicidal effect by foliage application, plastic box (Table 20, symbol H); format: in vivo, barnyard grass (Echinochloa crus-galli); conditions: foliage application
In short: as §2

[17] = system: green foxtail; assay: Test Example 4: herbicidal effect by soil treatment (Table 19, symbol G); format: in vivo, green foxtail (Setaria viridis); conditions: amount of applied herbicide 320 g/ha
In short: as §4

[18] = 320 g/ha, three weeks after application
[19] = amount of applied herbicide 320 g/ha
[20] = 320 g/ha, evaluated 3 weeks after application
[21] = 296 g/ha, three weeks after application
[22] = amount of applied herbicide 296 g/ha

Compound	herbicidal effect on Chinese sprangletop (D) ([1]; 320 g/ha)	I: wild oat, herbicidal effect grade [2, 18]	G: green foxtail, herbicidal effect grade [3, 18]	L: windgrass, herbicidal effect grade [4, 18]	Herbicidal effect, B: Japanese bulrush [5, 19]	N: redroot pigweed, herbicidal effect grade [6, 19]	F: southern crabgrass, herbicidal effect grade [7, 19]	H: barnyard grass, herbicidal effect grade [8, 19]	L: windgrass, herbicidal effect grade [9]	R: persian speedwell, herbicidal effect grade [10, 18]	herbicidal effect on barnyard grass (H) ([11]; 320 g/ha)	M: velvetleaf, herbicidal effect grade [12, 19]	Herbicidal effect, C: oval-leafed pondweed [13, 19]	O: lambsquarters, herbicidal effect grade [14, 18]	herbicidal effect on rice flat sedge (E) ([15]; 320 g/ha)	H: barnyard grass, herbicidal effect grade [16, 18]	Herbicidal effect on D (Chinese sprangletop), foliage application [1]	G: green foxtail, herbicidal effect grade [17]	Herbicidal effect on H (barnyard grass), foliage application [11]	Herbicidal effect on E (rice flat sedge), foliage application [15]	also measured
CCCC(=O)Oc1c(C)nn(C)c(=O)c1-c1c(-c2ccccc2)sc2cc(OC)ccc12 [3-062]	1 (Herbicidal rate of 5% or more and less than 20%)	2 (Herbicidal rate of 20% or more and less than 40%)	0 (Herbicidal rate of 5% or less (almost no effect))	0 (Herbicidal rate of 5% or less (almost no effect))	4 (Herbicidal rate of 70% or more and less than 90%)	0 (Herbicidal rate of 5% or less (almost no effect))	0 (Herbicidal rate of 5% or less (almost no effect))	0 (Herbicidal rate of 5% or less (almost no effect))	0 (Herbicidal rate of 5% or less (almost no effect))	3 (Herbicidal rate of 40% or more and less than 70%)	2 (Herbicidal rate of 20% or more and less than 40%)	0 (Herbicidal rate of 5% or less (almost no effect))	4 (Herbicidal rate of 70% or more and less than 90%)	2 (Herbicidal rate of 20% or more and less than 40%)	5 (Herbicidal rate of 90% or more (almost completely withered))	0 (Herbicidal rate of 5% or less (almost no effect))					
CCCC(=O)Oc1c(C)nn(C)c(=O)c1-c1c(-c2ccc(F)cc2OC)sc2cc(OC)ccc12 [3-077]	1 (Herbicidal rate of 5% or more and less than 20%)	4 (Herbicidal rate of 70% or more and less than 90%)	5 (Herbicidal rate of 90% or more (almost completely withered))	4 (Herbicidal rate of 70% or more and less than 90%)	5 (Herbicidal rate of 90% or more (almost completely withered))	5 (Herbicidal rate of 90% or more (almost completely withered))	0 (Herbicidal rate of 5% or less (almost no effect))	3 (Herbicidal rate of 40% or more and less than 70%)	3 (Herbicidal rate of 40% or more and less than 70%)	3 (Herbicidal rate of 40% or more and less than 70%)	5 (Herbicidal rate of 90% or more (almost completely withered))	0 (Herbicidal rate of 5% or less (almost no effect))	5 (Herbicidal rate of 90% or more (almost completely withered))	4 (Herbicidal rate of 70% or more and less than 90%)	5 (Herbicidal rate of 90% or more (almost completely withered))	0 (Herbicidal rate of 5% or less (almost no effect))					
Cc1nn(C)c(=O)c(-c2c(-c3ccc(OC(C)C)cc3)oc3ccc(F)cc23)c1O [9-025]					5 (Herbicidal rate of 90% or more (almost completely withered))	3 (Herbicidal rate of 40% or more and less than 70%)	4 (Herbicidal rate of 70% or more and less than 90%)	4 (Herbicidal rate of 70% or more and less than 90%)				3 (Herbicidal rate of 40% or more and less than 70%)	5 (Herbicidal rate of 90% or more (almost completely withered))				2 (Herbicidal rate of 20% or more and less than 40%)	5 (Herbicidal rate of 90% or more (almost completely withered))	5 (Herbicidal rate of 90% or more (almost completely withered))	5 (Herbicidal rate of 90% or more (almost completely withered))	herbicidal effect on wild oat (I) [2, 18]: 3 (Herbicidal rate of 40% or more and less than 70%); herbicidal effect on green foxtail (G) [3, 18]: 0 (Herbicidal rate of 5% or less (almost no effect)); herbicidal effect on windgrass (L) [4, 18]: 0 (Herbicidal rate of 5% or less (almost no effect)); herbicidal effect on persian speedwell (R) [10, 18]: 5 (Herbicidal rate of 90% or more (almost completely withered)); herbicidal effect on lambsquarters (O) [14, 18]: 4 (Herbicidal rate of 70% or more and less than 90%); herbicidal effect on barnyard grass (H) [16, 18]: 4 (Herbicidal rate of 70% or more and less than 90%)
COCCOc1ccc(-c2oc3ccc(C)cc3c2-c2c(O)c(C)nn(C)c2=O)cc1 [9-063]					5 (Herbicidal rate of 90% or more (almost completely withered))	5 (Herbicidal rate of 90% or more (almost completely withered))	5 (Herbicidal rate of 90% or more (almost completely withered))	5 (Herbicidal rate of 90% or more (almost completely withered))				5 (Herbicidal rate of 90% or more (almost completely withered))	5 (Herbicidal rate of 90% or more (almost completely withered))				3 (Herbicidal rate of 40% or more and less than 70%)	5 (Herbicidal rate of 90% or more (almost completely withered))	5 (Herbicidal rate of 90% or more (almost completely withered))	4 (Herbicidal rate of 70% or more and less than 90%)	I (wild oat) herbicidal effect grade [2, 20]: 1 (Herbicidal rate of 5% or more and less than 20%); G (green foxtail) herbicidal effect grade [3, 20]: 5 (Herbicidal rate of 90% or more (almost completely withered)); L (windgrass) herbicidal effect grade [4, 20]: 4 (Herbicidal rate of 70% or more and less than 90%); R (persian speedwell) herbicidal effect grade [10, 20]: 5 (Herbicidal rate of 90% or more (almost completely withered)); O (lambsquarters) herbicidal effect grade [14, 20]: 5 (Herbicidal rate of 90% or more (almost completely withered)); H (barnyard grass) herbicidal effect grade [16, 20]: 5 (Herbicidal rate of 90% or more (almost completely withered))
CCCC(=O)Oc1c(C)nn(C)c(=O)c1-c1c(-c2ccccc2OC)sc2cc(OC)ccc12 [Compound No. 3-066, 5-(6-methoxy-2-(2-methoxyphenyl)benzo[b]thiophen-3-yl)-1,3-dimethyl-6-oxo-1,6-dihydropyridazin-4-yl=(n-butyrate)]																					herbicidal effect on Chinese sprangletop (D) ([1]; 296 g/ha): 1 (Herbicidal rate of 5% or more and less than 20%); I: wild oat, herbicidal effect grade [2, 21]: 3 (Herbicidal rate of 40% or more and less than 70%); G: green foxtail, herbicidal effect grade [3, 21]: 4 (Herbicidal rate of 70% or more and less than 90%); L: windgrass, herbicidal effect grade [4, 21]: 5 (Herbicidal rate of 90% or more (almost completely withered)); Herbicidal effect, B: Japanese bulrush [5, 22]: 5 (Herbicidal rate of 90% or more (almost completely withered)); N: redroot pigweed, herbicidal effect grade [6, 22]: 0 (Herbicidal rate of 5% or less (almost no effect)); F: southern crabgrass, herbicidal effect grade [7, 22]: 0 (Herbicidal rate of 5% or less (almost no effect)); H: barnyard grass, herbicidal effect grade [8, 22]: 0 (Herbicidal rate of 5% or less (almost no effect)); R: persian speedwell, herbicidal effect grade [10, 21]: 1 (Herbicidal rate of 5% or more and less than 20%); herbicidal effect on barnyard grass (H) ([11]; 296 g/ha): 5 (Herbicidal rate of 90% or more (almost completely withered)); M: velvetleaf, herbicidal effect grade [12, 22]: 0 (Herbicidal rate of 5% or less (almost no effect)); Herbicidal effect, C: oval-leafed pondweed [13, 22]: 5 (Herbicidal rate of 90% or more (almost completely withered)); O: lambsquarters, herbicidal effect grade [14, 21]: 5 (Herbicidal rate of 90% or more (almost completely withered)); herbicidal effect on rice flat sedge (E) ([15]; 296 g/ha): 5 (Herbicidal rate of 90% or more (almost completely withered)); H: barnyard grass, herbicidal effect grade [16, 21]: 4 (Herbicidal rate of 70% or more and less than 90%)

— patent publication US20230085307A1, “PYRIDAZINONE COMPOUND AND HERBICIDE” (NISSAN CHEMICAL CORPORATION, priority 2019, published 2023)
